One test has as its target T1, DNA topoisomerase I (Bos taurus, UniProt F1MN93).
T1 construct: purchased TaKaRa, Kyoto, Japan
T1 sequence (F1MN93 1-767): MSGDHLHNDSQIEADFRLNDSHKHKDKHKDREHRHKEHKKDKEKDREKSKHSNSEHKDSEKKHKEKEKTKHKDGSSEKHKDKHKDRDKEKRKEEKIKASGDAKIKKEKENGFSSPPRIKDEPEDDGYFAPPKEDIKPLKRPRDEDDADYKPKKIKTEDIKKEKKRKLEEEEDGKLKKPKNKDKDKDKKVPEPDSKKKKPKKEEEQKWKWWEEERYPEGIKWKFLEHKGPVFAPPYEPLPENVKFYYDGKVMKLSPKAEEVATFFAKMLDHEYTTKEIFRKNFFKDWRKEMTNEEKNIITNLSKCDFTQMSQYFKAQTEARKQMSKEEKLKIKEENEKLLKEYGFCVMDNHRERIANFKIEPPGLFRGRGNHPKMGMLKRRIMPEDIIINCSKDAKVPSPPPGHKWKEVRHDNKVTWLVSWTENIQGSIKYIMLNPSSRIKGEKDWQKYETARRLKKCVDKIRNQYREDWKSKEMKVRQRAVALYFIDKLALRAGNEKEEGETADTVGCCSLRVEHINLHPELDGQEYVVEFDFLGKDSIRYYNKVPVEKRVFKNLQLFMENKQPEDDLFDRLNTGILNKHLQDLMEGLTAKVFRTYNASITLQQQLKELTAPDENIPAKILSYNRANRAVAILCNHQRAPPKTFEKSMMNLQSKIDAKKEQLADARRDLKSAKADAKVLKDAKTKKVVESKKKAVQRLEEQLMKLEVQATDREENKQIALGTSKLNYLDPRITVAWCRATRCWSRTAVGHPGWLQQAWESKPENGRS
The test is described as follows: Topoisomerase I relaxation assay (supercoiled pBR322). The test is classed as biochemical. The following applies: 100 μM compound; read-out: Topo I Inhibition (%) 100 μM. Summed up: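 Relaxation of supercoiled pBR322 by topoisomerase I, 30 min at 37 °C; stopped with SDS dye. Products resolved on 1% agarose in 1× TAE for 1 h, ethidium bromide-stained, with relaxed vs supercoiled DNA visualized under UV.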

The test system of another test is SMMC-7721 cells. The test is described as follows: AO/EB double staining assay. Type of test: cell-based, human. The following applies: 0.3, 0.6 and 1.2 μM, 48 h. The text has this:
Apoptosis induced by compound 5f was further evaluated using acridine orange / ethidium bromide (AO/EB) double staining. AO, as a vital dye showing green fluorescence, can pass through cell membrane of living or dead cells, while EB only stains apoptotic or necrotic cells that have lost their integrity and appear red fluorescence. Therefore, the normal cells will be stained only by AO with bright green while apoptotic cells will be stained by AO and EB with red-orange [26, 27].
SMMC-7721 cells were seeded into six-well plates and incubated at 37 °C with 5% CO2 for 24 h. Then, the cells were exposed to different concentrations of compound 5f (0, 0.3, 0.6, and 1.2 μM) for 48 h. After that, 10 μL of each fluorescent dye cantaining AO and EB (10 μg/mL) were added to each well in equal volumes respectively and incubated for 5 min in the dark. The cells were visualized through an inverted fluorescence microscope (Olympus 1X71 Inverted System Microscope, Olympus, Tokyo, Japan).

This is an account of results in article PMC7215373, “Design, Synthesis, and Anticancer Evaluation of Novel Indole Derivatives of Ursolic Acid as Potential Topoisomerase II Inhibitors” (International Journal of Molecular Sciences, 2020).

In general, inhibition refers to the share of the control response that was lost under treatment. For the compound `Cc1ccc2[nH]c3c(c2c1)C[C@@]1(C)C(CC[C@]2(C)C1CC=C1C4[C@@H](C)[C@H](C)CC[C@]4(C(=O)NCCCN4CCN(C)CC4)CC[C@]12C)C3(C)C` (some centres unmarked) [5f, N-(3-(4-Methylpiperazin-1-yl)propyl)-5′-methyl-1′H-ursa-2,12-dieno[3,2-b]indol-28-carboxamide], the inhibition at 100 µM on DNA topoisomerase I turned out to be 0%. In the test on SMMC-7721 cells, the “apoptosis by AO/EB staining (fluorescence microscopy)” value was “induced apoptosis”.
